Experimental data: patent US8008501B2, “Quinoline compounds and their uses” (Rigel Pharmaceuticals, Inc., priority 2003, dated 2011)
Where two headings read alike, the source gives them in different places.

Assays:
[1] = system: cultured human mast cells (CHMC); assay: CHMC low cell density IgE activation: tryptase assay; assay type: cell-based; details: anti-IgE stimulated, tryptase release, first symbol of cell
Procedure: Inhibition of degranulation was measured at both low and high cell density by quantifying the release of the granule specific factors tryptase, histamine and hexosaminidase. Inhibition of release and/or synthesis of lipid mediators was assessed by measuring the release of leukotriene LTC4 and inhibition of release and/or synthesis of cytokines was monitored by quantifying TNF-α, IL-6 and IL-13. Tryptase and hexosaminidase were quantified using fluorogenic substrates as described in their respective examples. Histamine, TNFα, IL-6, IL-13 and LTC4 were quantified using the following commercial ELISA kits: histamine (Immunotech #2015, Beckman Coulter), TNFα (Biosource #KHC3011), IL-6 (Biosource #KMC0061), IL-13 (Biosource #KHC0132) and LTC4 (Cayman Chemical #520211). The protocols of the various assays are provided below.
7.7.2 CHMC Low Cell Density IgE Activation: Tryptase and LTC4 Assays
To duplicate 96-well U-bottom plates (Costar 3799) add 65 ul of compound dilutions or control samples that have been prepared in MT [137 mM NaCl, 2.7 mM KCl, 1.8 mM CaCl2, 1.0 mM MgCl2, 5.6 mM Glucose, 20 mM Hepes (pH 7.4), 0.1% Bovine Serum Albumin, (Sigma A4503)] containing 2% MeOH and 1% DMSO. Pellet CHMC cells (980 rpm, 10 min) and resuspend in pre-warmed MT. Add 65 ul of cells to each 96-well plate. Depending on the degranulation activity for each particular CHMC donor, load 1000-1500 cells/well. Mix four times followed by a 1 hr incubation at 37° C. During the 1 hr incubation, prepare 6× anti-IgE solution [rabbit anti-human IgE (1 mg/ml, Bethyl Laboratories A80-109A) diluted 1:167 in MT buffer]. Stimulate cells by adding 25 ul of 6× anti-IgE solution to the appropriate plates. Add 25 ul MT to un-stimulated control wells. Mix twice following addition of the anti-IgE. Incubate at 37° C. for 30 minutes. During the 30 minute incubation, dilute the 20 mM tryptase substrate stock solution [(Z-Ala-Lys-Arg-AMC2TFA; Enzyme Systems Products, #AMC-246)] 1:2000 in tryptase assay buffer [0.1 M Hepes (pH 7.5), 10% w/v Glycerol, 10 uM Heparin (Sigma H-4898) 0.01% NaN3]. Spin plates at 1000 rpm for 10 min to pellet cells. Transfer 25 ul of supernatant to a 96-well black bottom plate and add 100 ul of freshly diluted tryptase substrate solution to each well. Incubate plates at room temperature for 30 min. Read the […] of the plates at 355 nm/460 nm on a spectrophotometric plate reader.

[2] = system: cultured human mast cells (CHMC); assay: CHMC low cell density ionomycin activation: tryptase assay; assay type: cell-based; details: ionomycin stimulated, tryptase release
Procedure: To confirm that many of the quinoline compounds of the invention exert their inhibitory activity by blocking or inhibiting the early IgE receptor signal transduction cascade, many of the compounds were tested in cellular assays for ionomycin-induced degranulation, as described below.
7.8.1 CHMC Low Cell Density Ionomycin Activation: Tryptase Assay
Assays for ionomycin-induced mast cell degranulation were carried out as described for the CHMC Low Density IgE Activation assays (Section 7.7.2, supra), with the exception that during the 1 hour incubation, 6× ionomycin solution [5 mM ionomycin (Signma 1-0634) in MeOH (stock) diluted 1:416.7 in MT buffer ([…])] was prepared and cells were stimulated by adding 25 μl of the 6× ionomycin solution to the appropriate plates.

[3] = system: mouse model of passive cutaneous anaphylaxis (PCA); details: i.p., 30 minutes pretreatment time
Procedure: This model provides a direct measure of IgE-induced degranulation of tissue mast cells. In this model, IgE primed animals are exposed to an allergen challenge and the change in permeability of dermal vasculature that results from histamine release from mast cells is measured by change in the amount of dye leakage into surrounding tissue. Inhibition of mediator release by compounds that modulate mast cell degranulation is easily measured by extracting the dye from the tissue.
In the PCA assay mice are passively sensitized by intradermal injection with anti-dinitrophenol (DNP) IgE antibodies (Day-1). At predetermined times (5-60 minutes prior to challenge), animals are treated with the test agent (Day 0). The modulatory effect of the agent on cutaneous mast cell degranulation is measured following intravenous injection of DNP conjugated to human serum albumin (HSA-DNP), together with Evans blue dye. The resulting cross-linking of the IgE receptor and subsequent mast cell degranulation-induced increase in vascular permeability is determined by measuring the amount of dye extravasation into the tissue. Dye is extracted from the tissue by formamide, and the absorbance of this extract is read at 620 nm. The inhibitory effect of drug treatment is reported as the percent inhibition compared to vehicle treatment, that is, the percent reduction in A620. […]

[4] = second symbol of cell, read-out: CHMC -IONO
[5] = Homo sapiens, Mast cell, second symbol of cell, read-out: CHMC -IONO

| IC50 [1] | IC50 [2, 4] | Structure (SMILES) | other results |
| --- | --- | --- | --- |
| ≤ 10 µM | > 10 µM | Cc1noc(C)c1NC(=O)c1cc(Cl)nc2ccc(Br)cc12 [Compound 45] | – |
| ≤ 10 µM | – | Cc1onc(-c2ccccc2)c1C(=O)Oc1ccnc2c(C(F)(F)F)cccc12 [Compound 15] | – |
| ≤ 10 µM | ≤ 10 µM | CCOC(=O)c1cc(OC(=O)c2c(-c3ccccc3)noc2C)c2ccccc2n1 [Compound 19] | – |
| > 10 µM | > 10 µM | Cc1onc(-c2ccccc2)c1NC(=O)c1cc(-c2ccccc2)nc2ccccc12 [Compound 61] | – |
| – | – | Cc1cc(C(=O)Nc2c(-c3ccccc3)noc2C)c2cc(F)ccc2n1 [Compound 47, 6-Fluoro-2-methyl-N-(5-methyl-3-phenylisoxazol-4-yl)-4-quinolinecarboxamide] | IC50 ([1]; Homo sapiens, Mast cell): ≤ 10 µM; IC50 [2, 5]: > 10 µM |
| – | – | Cc1cc(OC(=O)c2c(-c3ccccc3)noc2C)c2ccccc2n1 [Compound 9, 5-Methyl-3-phenyl-4-isoxazolecarboxylic acid, 2-methyl-4-quinolinyl Ester] | IC50 ([1]; Homo sapiens, Mast cell): ≤ 10 µM; IC50 [2, 5]: ≤ 10 µM |
| > 10 µM | > 10 µM | Cc1onc(-c2ccccc2)c1NC(=O)c1ccnc2ccccc12 [Compound 63] | – |
| ≤ 10 µM | > 10 µM | CNc1cc(NC(=O)c2c(-c3ccccc3)noc2C)c2cc(Br)ccc2n1 [Compound 67] | – |
| – | – | CN1CCC(=C2c3ccccc3C=Cc3ccccc32)CC1 [Cyproheptadine, cyproheptadine] | inhibition of the PCA response ([3]; 8 mg/kg, n=23 experiments): 61% +/−4 |
| ≤ 10 µM | ≤ 10 µM | Cc1onc(-c2ccccc2)c1C(=O)Oc1ccnc2ccccc12 [Compound 5] | – |
| ≤ 10 µM | ≤ 10 µM | CCOC(=O)c1cnc2cc(C(F)(F)F)ccc2c1OC(=O)c1c(-c2ccccc2)noc1C [Compound 17] | – |
| ≤ 10 µM | ≤ 10 µM | Cc1cc(OC(=O)c2c(-c3ccccc3)noc2C)c2cc(F)ccc2n1 [Compound 11] | – |
| ≤ 10 µM | ≤ 10 µM | Cc1onc(-c2ccccc2)c1C(=O)Oc1ccnc2cc(Cl)ccc12 [Compound 7] | – |
| – | – | CN(C)CCOC(c1ccccc1)c1ccccc1 [diphenhydramine] | inhibition of the PCA response ([3]; highest dose 50 mg/kg): up to 86% |
| > 10 µM | > 10 µM | Cc1noc(C)c1C(=O)Nc1ccnc2cc(C(F)(F)F)ccc12 [Compound 37] | – |
| ≤ 10 µM | ≤ 10 µM | Cc1noc(C)c1C(=O)Oc1cc(C(F)(F)F)nc2ccc(OC(F)(F)F)cc12 [Compound 29] | – |
| > 10 µM | > 10 µM | Cc1noc(C)c1NC(=O)c1cc(-c2ccccc2)nc2ccccc12 [Compound 1] | – |
| ≤ 10 µM | ≤ 10 µM | Cc1onc(-c2ccccc2)c1C(=O)Oc1cc(C(F)(F)F)nc2ccc(OC(F)(F)F)cc12 [Compound 27] | – |
| – | – | Cc1onc(-c2ccccc2)c1NC(=O)c1cc(Cl)nc2ccc(Br)cc12 [Compound 43, 6-bromo-2-chloro-N-(5-methyl-3-phenylisoxazol-4-yl)-4-quinolinecarboxamide] | IC50 ([1]; Homo sapiens, Mast cell): ≤ 10 µM; IC50 [2, 5]: > 10 µM |
| ≤ 10 µM | – | Cc1cc(OC(=O)c2c(C)noc2C)c2cc(F)ccc2n1 [Compound 21] | – |
| – | – | Cc1onc(-c2ccccc2)c1NC(=O)c1cc(Nc2cccc(O)c2)nc2ccc(Br)cc12 [Compound 71, 6-Bromo-2-(3-hydroxyphenyl)amino-N-(5-methyl-3-phenylisoxazol-4-yl)-4-quinolinecarboxamide] | IC50 ([1]; Homo sapiens, Mast cell): ≤ 10 µM; IC50 [2, 5]: ≤ 10 µM |
| ≤ 10 µM | ≤ 10 µM | Cc1onc(-c2ccccc2)c1C(=O)Oc1ccnc2cc(C(F)(F)F)ccc12 [Compound 13] | – |
| – | – | Cc1onc(-c2ccccc2)c1C(=O)Nc1ccnc2cc(C(F)(F)F)ccc12 [Compound 35, 5-Methyl-3-phenyl-N-(7-trifluoromethyl-4-quinolinyl)-4-isoxazolecarboxamide] | IC50 ([1]; Homo sapiens, Mast cell): ≤ 10 µM; IC50 [2, 5]: ≤ 10 µM |
| ≤ 10 µM | ≤ 10 µM | Cc1onc(-c2ccccc2)c1C(=O)Oc1ccnc2ccc(OC(F)(F)F)cc12 [Compound 51] | – |
| ≤ 10 µM | > 10 µM | Cc1onc(-c2ccccc2)c1NC(=O)c1cc(Nc2ccc3[nH]ccc3c2)nc2ccc(Br)cc12 [Compound 65] | – |
| ≤ 10 µM | > 10 µM | Cc1cc(C(=O)Nc2c(C)noc2C)c2cc(F)ccc2n1 [Compound 49] | – |

| Structure (SMILES) | IC50 [1] | IC50 [2, 4] | other results |
| --- | --- | --- | --- |
| Cc1cc(OC(=O)c2c(-c3ccccc3Cl)noc2C)c2cc(F)ccc2n1 [Compound 25] | ≤ 10 µM | ≤ 10 µM | – |
| Cc1cc(OC(=O)c2c(-c3c(F)cccc3Cl)noc2C)c2cc(F)ccc2n1 [Compound 23] | ≤ 10 µM | – | – |
| Cc1cc(NC(=O)c2c(-c3ccccc3)noc2C)c2ccccc2n1 [Compound 3] | > 10 µM | – | – |
| Cc1onc(-c2c(F)cccc2Cl)c1C(=O)Oc1ccnc2ccc(OC(F)(F)F)cc12 [Compound 57] | ≤ 10 µM | > 10 µM | – |
| Cc1onc(-c2c(F)cccc2Cl)c1C(=O)Oc1cc(C(F)(F)F)nc2ccc(OC(F)(F)F)cc12 [Compound 31] | ≤ 10 µM | ≤ 10 µM | – |
| Cc1onc(-c2ccccc2Cl)c1C(=O)Oc1ccnc2ccc(OC(F)(F)F)cc12 [Compound 53] | ≤ 10 µM | ≤ 10 µM | – |
| Cc1onc(-c2ccccc2Cl)c1C(=O)Nc1ccnc2cc(C(F)(F)F)ccc12 [Compound 41] | > 10 µM | > 10 µM | – |
| Cc1onc(-c2c(F)cccc2Cl)c1C(=O)Nc1ccnc2cc(C(F)(F)F)ccc12 [Compound 39] | ≤ 10 µM | – | IC50 ([2]; read-out: CHMC -IONO (number printed instead of class symbol)): 30 µM |
| Cc1onc(-c2ccccc2Cl)c1C(=O)Oc1cc(C(F)(F)F)nc2ccc(OC(F)(F)F)cc12 [Compound 33] | ≤ 10 µM | – | – |
